According to US20200330467A1, “METHOD AND PHARMACEUTICAL COMPOSITIONS FOR THE TREATMENT OF MULTIPLE MYELOMA” (priority 2016, published 2020):

Tests used:
[1] = tested on: non-myeloma cells; format: cell-based, human; details: 1, 2.5 and 5 μM, day 4, patient mononuclear cell cultures, n=8
Description: […]. At day 4 of culture, the viability and total cell counts were assessed and the percentage of CD138 viable plasma cells was determined by flow cytometry. Results are median values of the numbers of myeloma cells in the culture wells. The values were compared with a Wilcoxon test for pairs.
[…]. MMCs cytotoxicity was evaluated using anti-CD138-PE mAb (Immunotech, Marseille, France) as described^18,35. Results were analyzed using GraphPad Prism (http://www.graphpad.com/scientific-software/prism/).

[2] = tested on: U2OS cells; experiment: Immunoblot analysis of DNA damage and checkpoint markers in U2OS cells treated with UNC0379; format: cell-based, human
Description: For immunoblot analysis, cells washed with phosphate-buffered saline (PBS) were lysed in Laemmli buffer. After measuring protein quantity by Bradford, equal amounts of protein were resolved by SDS-PAGE, transferred to a nitrocellulose membrane and probed with one of the following antibodies: anti-SETD8 (1:1000, Cell Signaling Technology), anti-H4K20me1 (1:1000 cell signaling) anti-phospho-H2A.X-Ser139 (1:1000, millipore). Membranes were then incubated with the appropriate horseradish peroxidase (HRP)-conjugated secondary antibodies. The immunoreactive bands were detected by chemiluminescence.

[3] = tested on: MM cells; experiment: DNA repair foci (53BP1) immunofluorescence, combination with melphalan; details: sub-lethal dose of UNC0379 combined with melphalan, P<0.001
Description: At least 300 cells were counted for each treatment group.
After deposition on slides using a Cytospin centrifuge, cells were fixed with 4% PFA, permeabilized with 0.5% Triton in PBS and saturated with 5% bovine milk in PBS. […] Slides were washed and mounted with Vectashield and 1% DAPI. Images and fluorescence were captured with a ZEISS Axio Imager Z2 microscope (X63 objective) (company, town state), analyzed with Metafer (version3.6, company, town state) and ImageJ softwares. The number of 53BP1 and γH2AX foci was counted in at least 300 nuclei.

[4] = tested on: XG7 HMCL; experiment: Apoptosis induction, Annexin V APC staining by flow cytometry, XG7; format: cell-based, human; details: XG7, UNC0379 5 mM (so in the source)
Description: (§1) Apoptosis induction was analyzed with Annexin V APC staining by flow cytometry. The shown data is one representative experiment and mean values±SD of 3 separate experiments. Statistical analysis was done with a paired t-test.

[5] = tested on: XG1 HMCL; experiment: Apoptosis induction, Annexin V APC staining by flow cytometry, XG1; format: cell-based, human; details: XG1, UNC0379 5 mM (so in the source)
Description: as §1

**Q.** With `COc1cc2nc(N3CCCC3)nc(NCCCCCN3CCCC3)c2cc1OC` [UNC0379] as the compound, how does the “toxicity on the non-myeloma cells” value [1] read?
**A.** The value was “without significant toxicity”.

**Q.** What about the P53 level [2] of the same compound?
**A.** Its P53 level is “stabilization of P53”.

**Q.** What about the “phosphorylation of CHK1 (DNA damage checkpoint activation)” value [2] of the same compound?
**A.** The value was “phosphorylation of CHK1”.

**Q.** And the “γH2A.X (marker of DNA damage)” value [2]?
**A.** The value was “increase in γH2A.X”.

**Q.** What about the “accumulation of DNA double strand breaks (53BP1 foci)” value [3] of the same compound?
**A.** The value was “significantly synergizes with melphalan”.

**Q.** And the annexin-V positive cells [4]?
**A.** The annexin-V positive cells was 63%.

**Q.** And the annexin-V positive cells [5]?
**A.** The annexin-V positive cells was 87%.
